# System: osteoclast-mediated bone resorption
# Assay: Inhibition of osteoclast function in vivo by monitoring bone resorption in young growing mice
# Conditions: young growing mice aged 3-4 weeks, subcutaneous bid for 14 days (5 mg/kg/day)
# Procedure: GGA and derivatives can be tested for their ability to modulate osteoclast function by administering to animals and monitoring bone resorption. One model is to determine the effects on bone resorption of young growing mice as previously described (Schenk et al., Calcif. Tissues Int 38:342-349, 1986; Simonet et al., Cell 89, 308-319, 1997). Young growing mice aged 3-4 weeks, weight range 9.2-15.7 g are divided into groups of ten mice per group. These mice are injected subcutaneously with saline or test compounds bid for 14 days (5 mg/kg/day). The mice are then radiographed before treatment, at day 7 and on day 14. The mice were sacrificed 24 hours after the final injection. The right femur is then removed, fixed in zinc formalin, decalcified in formic acid and embedded in paraffin. Sections are cut through the mid region of the distal femoral metaphysis and the femoral shaft. Bone density, by histomorphometry, is determined in six adjacent regions extending from the metaphyseal limit of the growth plate, through the primary and secondary spongiosa and into the femoral diaphysis (shaft). […] This is a region where bone is rapidly removed by osteoclast-mediated bone resorption in mice. In these rapidly growing young mice, the increase in bone in this region observed with treatment is consistent with an inhibition of bone resorption.
smiles,measurement,setting,value
"CC(=O)CCC=C(C)CCC=C(C)CCC=C(C)CCC=C(C)C [GGA, Geranylgeranyl acetone]","Radiographic changes: zone of bone density in the spongiosa associated with the growth plates, relative to controls",after seven days of treatment,increased bone density
same,"Histological changes: bone density (histomorphometry) in distal femoral metaphysis, regions 1.1 to 2.65 mm from the growth plate",right femur removed 24 hours after final injection,increased bone density
